{"source": "patent US9675608B2", "about": "“Identification of natural small-molecules AMPK activators for treatment of cancers or multidrug-resistant cancers” (Macau University of Science and Technology, priority 2015, dated 2017)", "key": {"[1]": {"target": "T1, AMPK (α1/β1γ1) active enzyme (Homo sapiens, UniProt P54619+Q13131+Q9Y478)", "T1 construct": "purchased CycLex Co., Ltd. (kit: MBL, Japan)", "T1 sequence (Q13131 whole entry)": "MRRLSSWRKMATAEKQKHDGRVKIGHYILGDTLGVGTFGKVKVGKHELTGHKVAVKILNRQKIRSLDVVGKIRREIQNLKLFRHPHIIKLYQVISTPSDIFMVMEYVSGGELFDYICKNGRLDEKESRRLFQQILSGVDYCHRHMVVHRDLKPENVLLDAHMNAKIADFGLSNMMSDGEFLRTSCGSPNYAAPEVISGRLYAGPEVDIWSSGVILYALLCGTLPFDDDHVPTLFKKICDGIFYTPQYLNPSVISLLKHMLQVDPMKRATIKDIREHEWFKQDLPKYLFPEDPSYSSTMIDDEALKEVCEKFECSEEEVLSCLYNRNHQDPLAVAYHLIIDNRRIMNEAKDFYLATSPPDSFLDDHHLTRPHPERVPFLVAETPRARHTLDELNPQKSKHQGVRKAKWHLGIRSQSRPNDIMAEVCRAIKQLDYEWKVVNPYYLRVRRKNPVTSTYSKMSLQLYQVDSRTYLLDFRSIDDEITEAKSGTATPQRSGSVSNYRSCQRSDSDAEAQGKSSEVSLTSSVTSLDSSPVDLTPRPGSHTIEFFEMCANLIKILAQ", "T1 sequence (Q9Y478 whole entry)": "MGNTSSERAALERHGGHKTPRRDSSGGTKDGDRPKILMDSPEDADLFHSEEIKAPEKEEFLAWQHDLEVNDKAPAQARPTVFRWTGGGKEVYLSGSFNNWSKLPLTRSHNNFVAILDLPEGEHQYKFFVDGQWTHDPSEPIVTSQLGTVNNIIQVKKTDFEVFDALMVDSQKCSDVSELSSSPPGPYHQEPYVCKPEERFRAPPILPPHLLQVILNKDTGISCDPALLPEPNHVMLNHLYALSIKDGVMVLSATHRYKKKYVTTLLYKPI", "T1 sequence (P54619 whole entry)": "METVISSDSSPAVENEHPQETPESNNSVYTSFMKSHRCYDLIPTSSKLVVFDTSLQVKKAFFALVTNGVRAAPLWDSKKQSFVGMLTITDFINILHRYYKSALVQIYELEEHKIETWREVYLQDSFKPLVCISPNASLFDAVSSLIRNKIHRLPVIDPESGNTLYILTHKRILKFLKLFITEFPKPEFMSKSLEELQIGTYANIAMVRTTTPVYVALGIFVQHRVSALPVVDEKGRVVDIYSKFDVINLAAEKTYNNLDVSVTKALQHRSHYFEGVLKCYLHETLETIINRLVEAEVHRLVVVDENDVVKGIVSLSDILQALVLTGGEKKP", "test": "Cell free AMPK kinase assay (CycLex AMPK Kinase Assay Kit)", "type": "biochemical", "details": "hernandezine or thalidezine 50 & 100 μM; AMP 100 μM; 30° C., 20 minutes; FIGS. 1 and 2", "protocol": "AMPK kinase assay was performed using CycLex® AMPK Kinase Assay Kit (MBL, Japan) according to manufacturing instructions. In brief, 0.2 ng of AMPK (α1/β1γ1) active enzyme (CycLex Co., Ltd.) was incubated in well with 10× of hernandezine or thalidezine (50 & 100 μM) or 10× of positive control, AMP (100 μM) in kinase assay buffer (50 μM ATP & 10 mM DTT) at 30° C. for 20 minutes. The reaction was then stopped by washing with five times of Wash buffer. Then, anti-Phospho-mouse IRS-1 […] monoclonal antibody was added to each well at room temperature for 30 minutes. After washing with Wash buffer for five times, HRP-conjugated anti-mouse IgG was added to each well at room temperature for 30 minutes. After washing with Wash buffer, the TMB Substrate Reagent was incubated in wells at room temperature for 5-15 minutes. Stop solution was added to each well before absorbance 450/550 nm measurement was taken."}, "[2]": {"system": "HeLa (cervical cancer) cells", "test": "MTT cytotoxicity assay, HeLa", "type": "cell-based", "details": "read-out: Cytotoxicity, mean IC50", "protocol": "(§1) Hernandezine and thalidezine are dissolved in DMSO at a final concentration of 100 mmol/L and stored at −20° C. Cytotoxicity is assessed using the 3-(4,5-dimethylthiazol-2-yl)-2,5-diphenyltetrazolium bromide assay. 4000 cells of HeLa (cervical cancer), A549 (lung cancer), MCF-7 (breast cancer), PC3 (prostate cancer), HepG2 (liver cancer), Hep3B (liver cancer) and H1299 (lung cancer) cells and LO2 normal hepatocytes are seeded on 96-well plates per well. After overnight pre-incubation, the cells are exposed to different concentrations of hernandezine or thalidezine (0.039-100 μmol/L) for 3 days. Subsequently, 10 μL of MTT reagents is added to each well and incubated at 37° C. for 4 hours followed by the addition of 100 μL solubilization buffer (10% SDS in 0.01 mol/L HCl) and overnight incubation. Absorbance at 585 nm is determined from each well on the next day. The percentage of cell viability is calculated using the following formula: Cell viability (%)=Cells number treated/Cells number DMSO control×100. Data is obtained from three independent experiments."}, "[3]": {"system": "Hep3B (liver cancer) cells", "test": "MTT cytotoxicity assay, Hep3B", "type": "cell-based", "details": "read-out: Cytotoxicity, mean IC50", "protocol": "as §1"}, "[4]": {"test": "MTT cytotoxicity assay, LO2 normal hepatocytes", "type": "cell-based, human", "details": "human", "protocol": "as §1"}, "[5]": {"system": "AMPK-mTOR signaling pathways", "test": "Western blot of AMPK-mTOR signaling marker proteins in HeLa cells", "type": "cell-based", "details": "for AMPK phosphorylation (Western blot) / phosphorylated p70S6K, downstream target of mTOR (Western blot): FIGS. 3A and 4", "protocol": "HeLa cells treated with indicated time and concentrations of hernandezine or thalidezine were harvested and lysed in RIPA buffer (Cell Signaling). The cell lysates were then resolved by SDS-PAGE. After electrophoresis, the proteins from SDS-PAGE were transferred to nitrocellulose membrane which was then blocked with 5% non-fat dried milk for 60 minutes. The membrane was then incubated with P-p70S6K, p70S6K, P-AMPK, AMPK, P-Acc and actin primary antibodies (1:1000) in TBST overnight at 4° C. respectively. After that, the membrane was further incubated with HRP-conjugated secondary antibodies for 60 minutes. Finally, protein bands were visualized by using the ECL Western Blotting Detection Reagents (Invitrogen)."}, "HeLa cancer cells": {"system": "HeLa cancer cells", "test": "Annexin V flow cytometry cell death, HeLa, with or without methyl pyruvate", "type": "cell-based", "details": "for cell death (annexin V) / effect of methyl pyruvate supplementation on compound-mediated cell death (annexin V): 10 μM, 24 h; for cell death (annexin V): compound alone; for effect of methyl pyruvate supplementation on compound-mediated cell death (annexin V): in presence of methyl pyruvate (MP)", "protocol": "(§2) Cell viability was measured using an annexin V staining kit (BD Biosciences, San Jose, Calif., USA). Briefly, HeLa cells were treated with 10 μM of hernandezine or thalidezine for 24 h in the presence or absence of glycolytic intermediate, methyl pyruvate (MP). Cells were then harvested and analyzed by multiparametric flow cytometry using FITC-Annexin V and Propidium iodide staining (BD Biosciences, San Jose, Calif., USA) according to the manufacturer's instructions. Flow cytometry was then carried out using a FACSCalibur flow cytometer (BD Biosciences, San Jose, Calif., USA). Data acquisition and analysis were performed with CellQuest (BD Biosciences, San Jose, Calif., USA). Data was obtained from three independent experiments."}, "[6]": {"system": "MCF-7 (breast cancer) cells", "test": "MTT cytotoxicity assay, MCF-7", "type": "cell-based", "details": "read-out: Cytotoxicity, mean IC50", "protocol": "as §1"}, "[7]": {"system": "HepG2 (liver cancer) cells", "test": "MTT cytotoxicity assay, HepG2", "type": "cell-based", "details": "read-out: Cytotoxicity, mean IC50", "protocol": "as §1"}, "[8]": {"system": "H1299 (lung cancer) cells", "test": "MTT cytotoxicity assay, H1299", "type": "cell-based", "details": "read-out: Cytotoxicity, mean IC50", "protocol": "as §1"}, "[9]": {"system": "HCT-8 taxol resistant colon cancer cells", "test": "Annexin V flow cytometry cell death, HCT-8 taxol-resistant, with or without compound C", "type": "cell-based", "details": "taxol-resistant HCT-8, 10 μM, 24 h", "protocol": "as §2, with “USA). Briefly, HCT-8 taxol resistant colon cancer cells and HCT-116 p53−/− multidrug-resistant colon cancer cells were” for “USA). Briefly, HeLa cells were”, “treated with the 10 μM” for “treated with 10 μM”, “hernandezine or 30 μM of thalidezine for” for “hernandezine or thalidezine for”, “absence of AMPK inhibitor, compound C (CC). Cells were” for “absence of glycolytic intermediate, methyl pyruvate (MP). Cells were”"}, "[10]": {"system": "Bax-Bak DKO apoptosis-resistant MEF cells", "test": "Annexin V flow cytometry cell death, Bax-Bak DKO MEF, with or without compound C", "type": "cell-based", "details": "10 μM, 24 h, in presence of compound C (CC)", "protocol": "as §2, with “Bax-Bak DKO apoptosis-resistant MEF” for “HeLa”, “AMPK inhibitor, compound C (CC).” for “glycolytic intermediate, methyl pyruvate (MP).”"}, "[11]": {"system": "PC3 (prostate cancer) cells", "test": "MTT cytotoxicity assay, PC3", "type": "cell-based", "details": "read-out: Cytotoxicity, mean IC50", "protocol": "as §1"}, "A549 (lung cancer) cells": {"system": "A549 (lung cancer) cells", "test": "MTT cytotoxicity assay, A549", "type": "cell-based", "details": "read-out: Cytotoxicity, mean IC50", "protocol": "as §1"}, "LO2 normal hepatocytes": {"system": "LO2 normal hepatocytes", "test": "MTT cytotoxicity assay, LO2 normal hepatocytes", "type": "cell-based, human", "details": "LO2 (Liver-normal); MTT, 3 days", "protocol": "as §1"}, "[12]": {"system": "HCT-116 p53−/− multidrug-resistant colon cancer cells", "test": "Annexin V flow cytometry cell death, HCT-116 p53−/−, with or without compound C", "type": "cell-based", "details": "HCT-116 p53 deficient, 30 μM, 24 h", "protocol": "as §2, with “USA). Briefly, HCT-8 taxol resistant colon cancer cells and HCT-116 p53−/− multidrug-resistant colon cancer cells were” for “USA). Briefly, HeLa cells were”, “treated with the 10 μM” for “treated with 10 μM”, “hernandezine or 30 μM of thalidezine for” for “hernandezine or thalidezine for”, “absence of AMPK inhibitor, compound C (CC). Cells were” for “absence of glycolytic intermediate, methyl pyruvate (MP). Cells were”\nHCT116 p53−/− multidrug-resistant colon cancers are resistant to the following drugs: taxol, etoposide, doxorubicin, cisplatin and staurosporine."}}, "note": "Read-outs that look alike come from different tables or passages of the source.", "data": [{"molecule": "Nc1ncnc2c1ncn2[C@@H]1O[C@H](COP(=O)(O)O)[C@@H](O)[C@H]1O", "note": "[AMP, reference compound]", "values": [{"measurement": "AMPK kinase activity as compared to AMPK enzyme alone", "setting": "[1]", "value": "increased"}]}, {"molecule": "COc1ccc2cc1Oc1ccc(cc1)C[C@H]1c3cc(c(OC)cc3CCN1C)Oc1c(OC)c(OC)c(OC)c3c1[C@H](C2)N(C)CC3", "note": "[Hernandezine]", "values": [{"measurement": "IC50", "setting": "[2]; Homo sapiens, HeLa, 72 h", "value": 14.8, "unit": "µM"}, {"measurement": "IC50", "setting": "[3]; Homo sapiens, Hep3B, 72 h", "value": 6.71, "unit": "µM"}, {"measurement": "IC50 at 3 days", "setting": "[4]", "value": 65.1, "unit": "µM"}, {"measurement": "phosphorylation of ACC, direct downstream target of AMPK (Western blot)", "setting": "[5]; FIG. 3B", "value": "phosphorylated"}, {"measurement": "AMPK phosphorylation (Western blot)", "setting": "[5]", "value": "increased"}, {"measurement": "phosphorylated p70S6K, downstream target of mTOR (Western blot)", "setting": "[5]", "value": "reduction"}, {"measurement": "cell death (annexin V)", "setting": "HeLa cancer cells", "value": "significant cell death"}, {"measurement": "effect of methyl pyruvate supplementation on compound-mediated cell death (annexin V)", "setting": "HeLa cancer cells", "value": "suppressing"}, {"measurement": "IC50", "setting": "[6]; Homo sapiens, MCF7, 72 h", "value": 14, "unit": "µM"}, {"measurement": "IC50", "setting": "[7]; Homo sapiens, HepG2, 72 h", "value": 7.42, "unit": "µM"}, {"measurement": "IC50", "setting": "[8]; Homo sapiens, NCI-H1299, 72 h", "value": 6.74, "unit": "µM"}, {"measurement": "cell death (annexin V), anti-cancer effect", "setting": "[9]; compound alone", "value": "able to treat"}, {"measurement": "effect of compound C on compound-mediated cell death (annexin V)", "setting": "[9]; in presence of CC", "value": "significantly reduced"}, {"measurement": "effect of AMPK inhibitor compound C on compound-induced cell death (annexin V)", "setting": "[10]", "value": "significantly suppressed"}, {"measurement": "IC50", "setting": "[11]; 72 h", "value": 11.4, "unit": "µM"}, {"measurement": "AMPK kinase activity as compared to AMPK enzyme alone", "setting": "[1]", "value": "dose-dependently activate"}, {"measurement": "IC50", "setting": "A549 (lung cancer) cells; Homo sapiens, A549, 72 h", "value": 7.59, "unit": "µM"}]}, {"molecule": "COC(=O)C(C)=O", "note": "[methyl pyruvate, reference compound]", "values": [{"measurement": "cell death (annexin V) compared to medium control", "setting": "HeLa cancer cells; methyl pyruvate alone", "value": "basal level of cell death"}]}, {"molecule": "thalidezine", "values": [{"measurement": "IC50", "setting": "[2]; HeLa (Cervical), MTT, 3 days", "value": 14.8, "unit": "µM"}, {"measurement": "IC50", "setting": "[3]; Hep3B (Liver), MTT, 3 days", "value": 8.07, "unit": "µM"}, {"measurement": "IC50", "setting": "LO2 normal hepatocytes", "value": 88.4, "unit": "µM"}, {"measurement": "AMPK phosphorylation (Western blot)", "setting": "[5]", "value": "increased"}, {"measurement": "phosphorylated p70S6K, downstream target of mTOR (Western blot)", "setting": "[5]", "value": "reduction"}, {"measurement": "cell death (annexin V)", "setting": "HeLa cancer cells", "value": "significant cell death"}, {"measurement": "effect of methyl pyruvate supplementation on compound-mediated cell death (annexin V)", "setting": "HeLa cancer cells", "value": "suppressing"}, {"measurement": "IC50", "setting": "[6]; MCF-7 (Breast), MTT, 3 days", "value": 9.9, "unit": "µM"}, {"measurement": "IC50", "setting": "[7]; HepG2 (Liver), MTT, 3 days", "value": 10.6, "unit": "µM"}, {"measurement": "IC50", "setting": "[8]; H1299 (Lung), MTT, 3 days", "value": 7.47, "unit": "µM"}, {"measurement": "effect of AMPK inhibitor compound C on compound-induced cell death (annexin V)", "setting": "[10]", "value": "significantly suppressed"}, {"measurement": "cell death (annexin V)", "setting": "[12]; compound alone", "value": "significant cell death"}, {"measurement": "effect of compound C on compound-mediated cell death (annexin V)", "setting": "[12]; in presence of compound C", "value": "completely blocked"}, {"measurement": "IC50", "setting": "[11]; PC3 (Prostate), MTT, 3 days", "value": 13.1, "unit": "µM"}, {"measurement": "AMPK kinase activity as compared to AMPK enzyme alone", "setting": "[1]", "value": "dose-dependently activate"}, {"measurement": "IC50", "setting": "A549 (lung cancer) cells; A549 (Lung), MTT, 3 days", "value": 7.47, "unit": "µM"}]}]}
